Among the test systems are CAKI-1 renal; HCT-116 colon; HL-60(TB) leukemia; KM20L2 colon; M19-MEL melanoma; MOLT-4 leukemia; NCI-H522 lung; SK-MEL-2 melanoma; SNB-78 CNS; LXFL 529 NSCLC.
Common to all, as to assay: DTP human tumour cell line panel, 48 h

“And” between values parts separate entries of the source, which are not always exact repeats. Equal values may be shown once.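 Tested at 5 concentrations; 48 h exposure; 96-well plates; endpoints linearly interpolated, else capped at highest concentration. At the GI50, growth is halved. Definition used: TGI = concentration required for complete inhibition of growth.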

The text below walks through data of PubChem BioAssay (NCI).

Consider `NC(=O)NN=C(CS)CS`, for which the concentration for total growth inhibition (TGI) in the assay on CAKI-1 renal was 42.9 µM; in the assay on HCT-116 colon it was greater than 100 µM; in the assay with HL-60(TB) leukemia, 2.52 µM; in the assay on KM20L2 colon it was 36.4 µM; with M19-MEL melanoma, 37.1 µM; with MOLT-4 leukemia, 65.8 µM. The total growth inhibition concentration (TGI) with NCI-H522 lung is 55.2 µM; with SK-MEL-2 melanoma it was 45.1 µM; in the assay on SNB-78 CNS it was greater than 100 µM.

`CN(C)CCCNc1ccc2ncn3c4ccccc4c(=O)c1c23`: the TGI in the assay on HCT-116 colon was 15.1 µM; in the assay with HL-60(TB) leukemia, 21.2 µM; in the assay with KM20L2 colon, 30.4 µM; in the assay on LXFL 529 NSCLC, greater than 100 µM; in the assay on M19-MEL melanoma, 30.6 µM; in the assay on MOLT-4 leukemia it was 13 µM. Also, the total growth inhibition concentration (TGI) in the assay with NCI-H522 lung is greater than 100 µM; with SK-MEL-2 melanoma it was 26.8 µM; in the assay on SNB-78 CNS it was 78.7 µM.

On to `O=c1ccc2cc(O)c(O)cc2o1`, for which the TGI with CAKI-1 renal, with HCT-116 colon, with HL-60(TB) leukemia, with MOLT-4 leukemia, with NCI-H522 lung and with SK-MEL-2 melanoma was greater than 100 µM in each case.

In the case of `Cc1ccc(S(=O)(=O)NCCSCCNS(=O)(=O)c2ccc(C)cc2)cc1`, the TGI in the assay with HCT-116 colon, in the assay with MOLT-4 leukemia and in the assay on NCI-H522 lung was greater than 100 µM in each case.

For `COc1ccc([C@@H]2ON(C)[C@H]3CN(C)C(=O)[C@@H]23)cc1`, the concentration for total growth inhibition (TGI) in the assay on CAKI-1 renal, in the assay with HCT-116 colon, in the assay with HL-60(TB) leukemia, in the assay with MOLT-4 leukemia, in the assay with NCI-H522 lung and in the assay with SK-MEL-2 melanoma was greater than 100 µM in each case.

With `C/C=C/[P+](c1ccccc1)(c1ccccc1)c1ccccc1`, the TGI in the assay on CAKI-1 renal was greater than 100 µM; in the assay with HCT-116 colon, 20.6 µM; in the assay on HL-60(TB) leukemia, 2.78 µM; in the assay with MOLT-4 leukemia, 19.6 µM; with NCI-H522 lung, 10.2 µM; in the assay on SK-MEL-2 melanoma, 29.1 µM.

For `O=C1c2c(c3c4ccccc4[nH]c3c3ccc4ccccc4c23)C(=O)N1CCN1CCCCC1`, the GI50 is 1.07 µM in the assay with HL-60(TB) leukemia, 0.354 µM with MOLT-4 leukemia, 1.5 µM in the assay on NCI-H522 lung and 2.25 µM in the assay on SK-MEL-2 melanoma. Besides, the concentration for total growth inhibition (TGI) in the assay with HL-60(TB) leukemia turned out to be 3.31 µM; in the assay with MOLT-4 leukemia it was 5.35 µM; in the assay on NCI-H522 lung, 5.36 µM; in the assay with SK-MEL-2 melanoma it was 5.36 µM.

For the molecule `Cc1ccc(Oc2ccc(C)cc2[N+](=O)[O-])cc1`, the TGI in the assay on HCT-116 colon was greater than 100 µM; in the assay with HL-60(TB) leukemia, 79.7 µM; with KM20L2 colon, greater than 100 µM; in the assay on LXFL 529 NSCLC, greater than 100 µM; in the assay with M19-MEL melanoma it was greater than 100 µM; in the assay on MOLT-4 leukemia, greater than 100 µM. Also, the total growth inhibition concentration (TGI) in the assay with SK-MEL-2 melanoma is greater than 100 µM; with SNB-78 CNS it was 95 µM.

Turning to `COc1ccc(-c2c3c(nc4nc(SCCc5ccccc5)nc(N)c24)CCCC3)cc1OC`, the total growth inhibition concentration (TGI) with CAKI-1 renal, in the assay on HCT-116 colon, in the assay with HL-60(TB) leukemia and in the assay with MOLT-4 leukemia was greater than 100 µM throughout.

In the case of `CCCCCCCSc1nc2c(C(=O)OCC)ncn2c2ccccc12`, the concentration for total growth inhibition (TGI) with HCT-116 colon, with HL-60(TB) leukemia, in the assay on KM20L2 colon, in the assay on LXFL 529 NSCLC, with M19-MEL melanoma and in the assay on MOLT-4 leukemia was greater than 100 µM throughout. The concentration for total growth inhibition (TGI) in the assay with SK-MEL-2 melanoma was greater than 100 µM.

In the case of `COc1ccc(N2C(=O)C3c4[nH]c5c(C)cccc5c4C4CCC(C(C)(C)C)CC4C3C2=O)cc1` (stereo not given), the total growth inhibition concentration (TGI) in the assay on CAKI-1 renal, with HCT-116 colon, in the assay on HL-60(TB) leukemia, with MOLT-4 leukemia, in the assay on NCI-H522 lung and with SK-MEL-2 melanoma was greater than 10 µM throughout.

In the case of `CC(=O)C(O)N1C(=O)C=CC1=O` (stereo not given), the GI50 in the assay on KM20L2 colon was 17.9 µM and 1.9 µM; in the assay with LXFL 529 NSCLC, 15.3 µM; in the assay on M19-MEL melanoma it was 16.4 µM; in the assay on NCI-H522 lung, > 25 µM and 13.5 µM; with SNB-78 CNS it was 19.9 µM. For the same molecule, the TGI was 32.8 µM and 3.51 µM with KM20L2 colon; 28.6 µM and 3.32 µM in the assay on LXFL 529 NSCLC; 30.4 µM and 17.6 µM with M19-MEL melanoma; 37 µM and 54.9 µM in the assay with SNB-78 CNS.

On to `Cc1sc(Cc2ccccc2)nc1-c1ccc(N)cc1`, for which the total growth inhibition concentration (TGI) in the assay with CAKI-1 renal was 83.8 µM; with HCT-116 colon, 40.7 µM; in the assay with HL-60(TB) leukemia, greater than 100 µM; in the assay on MOLT-4 leukemia, 51.1 µM; with NCI-H522 lung, 38.7 µM; in the assay with SK-MEL-2 melanoma it was 37.7 µM.

Regarding `NC(=O)CCCC(NCc1c2ccccc2nc2ccccc12)C(=O)O` (stereo not given), the TGI in the assay on CAKI-1 renal was 96.2 µM; in the assay on HL-60(TB) leukemia it was 62.2 µM; in the assay with KM20L2 colon, greater than 100 µM; in the assay with LXFL 529 NSCLC it was greater than 100 µM; with M19-MEL melanoma it was greater than 100 µM; in the assay on MOLT-4 leukemia, 66.2 µM. In addition, the TGI in the assay with NCI-H522 lung was 67.7 µM; with SK-MEL-2 melanoma, greater than 100 µM.

As to `O=S(=O)(Sc1ccc(Cl)cc1)c1ccc(Cl)cc1`, the TGI in the assay on CAKI-1 renal came to 40.5 µM; in the assay on HCT-116 colon it was 28.6 µM; in the assay with HL-60(TB) leukemia, 33 µM; in the assay on KM20L2 colon it was 34.1 µM; in the assay with LXFL 529 NSCLC it was 32.7 µM; in the assay on M19-MEL melanoma, 35.6 µM. The total growth inhibition concentration (TGI) in the assay with MOLT-4 leukemia stood at 44.5 µM; with NCI-H522 lung it was 31.1 µM; in the assay on SK-MEL-2 melanoma, 14.5 µM; in the assay with SNB-78 CNS, 45.9 µM.

Take `CC1C(O)C2(Oc3cc4c(c5c3[C@@H](CC5O)[C@H]2C)CCC2Cc3nc5c(nc3C[C@@]42C)CC2CCC3C4=C[C@H]6O[C@@]7(O[C@@](C)(CO)C[C@@H]7O)C(C)[C@@]6(O)[C@]4(C)[C@@H](O)CC3[C@]2(C)C5)OC1(C)C` (stereo not given in full): the concentration for total growth inhibition (TGI) is 0.975 µM with CAKI-1 renal; 1.02 µM with HCT-116 colon; 0.177 µM in the assay with HL-60(TB) leukemia; 0.491 µM with KM20L2 colon; greater than 3.67 µM with M19-MEL melanoma; 0.42 µM in the assay on NCI-H522 lung. Also, the values for the concentration for total growth inhibition (TGI) in the assay on SK-MEL-2 melanoma and with SNB-78 CNS were 0.611 µM and 0.584 µM, respectively.

On to `O=NC1C(Cl)C2CC1C1C(Br)C(Br)CC21` (stereo not given), for which the TGI with CAKI-1 renal, in the assay with HCT-116 colon, in the assay on HL-60(TB) leukemia, with MOLT-4 leukemia, with NCI-H522 lung and in the assay with SK-MEL-2 melanoma was greater than 100 µM each time.

Turning to `N#CC(c1ccccc1)c1nc2ccc(=N)cc-2n(O)c1C(C#N)c1ccccc1` (stereo not given), the total growth inhibition concentration (TGI) in the assay on CAKI-1 renal, in the assay on HCT-116 colon, in the assay with HL-60(TB) leukemia, in the assay on KM20L2 colon, in the assay on LXFL 529 NSCLC and in the assay with M19-MEL melanoma was greater than 100 µM in each case. Further, the TGI in the assay on MOLT-4 leukemia, in the assay on NCI-H522 lung, with SK-MEL-2 melanoma and in the assay on SNB-78 CNS was greater than 100 µM each time.

In the case of `CN1CCCCC1CCN1CCCCC1` (stereo not given), the TGI in the assay on CAKI-1 renal, in the assay with HCT-116 colon, in the assay on HL-60(TB) leukemia, with MOLT-4 leukemia, in the assay with NCI-H522 lung and in the assay with SK-MEL-2 melanoma was greater than 100 µM in each case.

Regarding `CN(C)CCNc1nc(-c2ccc3ccccc3c2)nc2nc[nH]c12`, the TGI in the assay on CAKI-1 renal is 20.6 µM; in the assay on HCT-116 colon, 24.6 µM; with HL-60(TB) leukemia, greater than 100 µM; in the assay with MOLT-4 leukemia, 18.6 µM; with NCI-H522 lung, 6.22 µM; in the assay with SK-MEL-2 melanoma it was 28.1 µM.

Take `CN(C)c1ccc(/C=N\NC(=O)CSCC(=O)N/N=C/c2ccc(N(C)C)cc2)cc1`: the total growth inhibition concentration (TGI) in the assay with CAKI-1 renal, in the assay on HCT-116 colon, with HL-60(TB) leukemia, with MOLT-4 leukemia, in the assay with NCI-H522 lung and in the assay with SK-MEL-2 melanoma was greater than 100 µM in each case.

Consider `CC12CCC(C(=O)OC1=O)C(C)(C)O2` (stereo not given), for which the TGI with CAKI-1 renal, in the assay with HCT-116 colon, with MOLT-4 leukemia, in the assay with NCI-H522 lung and with SK-MEL-2 melanoma was greater than 100 µM throughout.

For the molecule `Cc1cc(NCc2cc(Nc3ccnc4cc(Cl)ccc34)ccc2F)nc(N2CCCC2)n1`, in the assay on CAKI-1 renal, the GI50 is 1.47 µM and the total growth inhibition concentration (TGI) is 2.98 µM. In addition, in the assay on MOLT-4 leukemia, the GI50 is 1.95 µM and the TGI was found to be 14.3 µM.

With `Cc1c2cc[n+](CCN3CCCCC3)cc2c(C)c2c1[nH]c1ccc(O)cc12`, the GI50 in the assay with CAKI-1 renal was 21.1 µM; with HCT-116 colon, 4.75 µM; with HL-60(TB) leukemia, 3.67 µM; with MOLT-4 leukemia, 0.267 µM and 0.0385 µM; with SK-MEL-2 melanoma, 13.5 µM. Further, the TGI was 24.3 µM and > 100 µM with CAKI-1 renal; 24.1 µM and 26.1 µM in the assay with HCT-116 colon; 26.5 µM and > 40.4 µM with HL-60(TB) leukemia; 34.5 µM in the assay with KM20L2 colon; 4.93 µM in the assay on M19-MEL melanoma; 8.96 µM and 5.96 µM with MOLT-4 leukemia. Further, the TGI in the assay on NCI-H522 lung is 53.5 µM and 16.2 µM; in the assay on SK-MEL-2 melanoma it was 35.5 µM and 36.3 µM; in the assay with SNB-78 CNS it was 64.1 µM.

Usually TGI stands for the concentration giving total growth inhibition. By GI50 is commonly meant the concentration at which growth is held to half of that of the control.
